Data reported in patent US9822104B2, “Taxifolin derivative with superior antioxidant effect and cosmetic composition containing the same” (Yeomyung Biochem Co., Ltd, priority 2015, dated 2017).

Experiments:
[1] = FRAP assay (ferric reducing ability); format: biochemical; settings: for FRAP value: 37° C. for 10 minutes, absorbance at 593 nm, FeSO4 calibration, ascorbic acid control at 1 mg/mL, Table 2
Description: FRAP assay of the samples was conducted by slightly modifying the method of Benzie and Strain (Benzie I F F, Strain J J. 1996. The ferric reducing ability of plasma (FRAP) as a measure of “Antioxidant power”: The FRAP assay. Anal Biochem 230: 70-79). The FRAP reagent was prepared by heating 25 mL acetate buffer (300 mM, pH 3.6) at 37′ C and adding a solution of 5 mL of 10 mM 2,4,6-tris(2-pyridyl)-s-triazine (TPTZ, Sigma) and 2.5 mL of 20 mM […] in 40 mM HCl thereto. 0.03 mL of the sample (Example 1 or Example 2) and 0.09 mL of distilled water were added to 0.9 mL of the prepared FRAP reagent, reaction was proceeded at 37° C. for 10 minutes and absorbance at 593 nm was measured using a spectrophotometer (Benchmark PLUS Bio-Rad). Distilled water, instead of the sample, was used as the blank. 1 mg/mL of ascorbic acid was used as a control group. A calibration equation for FeSO4 made by repetition at different concentrations of 0.125, 0.25, 0.5, 1 and 2 mM was obtained and measurement values of the samples were converted to FRAP values by applying the measurement values thereto. All measurements were repeated three times.

[2] = DPPH radical scavenging assay; format: biochemical; settings: for Antioxidative activity (IC50 mg/mL): DPPH radical scavenging, absorbance at 517 nm, reacted in the dark one hour, repeated three times, Table 1; for IC50 of DPPH radical scavenging activity: FIGS. 15A and 15B
Description: The antioxidant effect of synthesized taxifolin derivative was measured using a DPPH(1,1-diphenyl-2-picrylhydrazyl) radical (Blois M S. 1958. Antioxidant determination by the use of a stable free radical. Nature 25: 1199-1120). For measurement, different concentrations of 0.1 mL of the synthesized taxifolin derivatives were prepared and then mixed with 2.5 mL of ethanol. 0.5 mL of a 0.2 mM DPPH solution was added to the resulting mixture and reacted in the dark for one hour. Then, the absorbance of the reaction product was measured at 517 nm using a UV/Vis-spectrophotometer (BIO-RAD, USA). All tests were repeated three times, methanol was used as a blank sample and DPPH radical effect was calculated in accordance with the following Equation 1. DPPH radical scavenging activity was represented by IC50 (the concentration required for 50% inhibition). Scavenging effect (%)=(A−B)/A×100 [Equation 1]
where A=absorbance at 517 nm without test sample
where B=absorbance at 517 nm with test sample

Row | SMILES | FRAP value [1] [mM] | Antioxidative activity (IC50 mg/mL) [2] [mg/mL] | IC50 of DPPH radical scavenging activity [2] | FRAP value, ranking in words ([1]; FIG. 16, comparison among the samples) | IC50 of DPPH radical scavenging activity ([2]; listed as Example 2)
1 | O=C(O)CCCC[C@@H]1CCSS1 (racemic) [Lipoic acid] | 1.14 ± 0.019 | 515.77 ± 5.41 | about 250 mg/ml | – | –
2 | O=C1O[C@H]([C@@H](O)CO)C(O)=C1O [Ascorbic acid, ascorbic acid] | 3.7 ± 0.007 | – | – | – | –
3 | CC1(C)SCCC(CCCCC(=O)O)S1 (stereo not drawn) [Lipoic acid (dithiol protection), 5-(2,2-dimethyl-1,3-dithian-4-yl)pentanoic acid] | 0.74 ± 0.006 | – | about 2,000 mg/ml | – | –
4 | OCCCCCC1CCSS1 (stereo not drawn) [Lipoic alcohol] | 1.24 ± 0.007 | 3.22 ± 0.05 | – | – | –
5 | O=C(CCCCC1CCSS1)Oc1cc(OC(=O)CCCCC2CCSS2)c2c(c1)OC(c1ccc(OC(=O)CCCCC3CCSS3)c(OC(=O)CCCCC3CCSS3)c1)C(OC(=O)CCCCC1CCSS1)C2=O (stereo not drawn) [Taxifolin penta lipoate, 2-(3,4-bis(5-(1,2-dithiolan-3-yl)pentanoyloxy)phenyl)-4-oxochroman-3,5,7-triyl tris(5-(1,2-dithiolan-3-yl)pentanoate)] | 3.57 ± 0.146 | – | 220 ± 3 µg/mL | next highest value | very low IC50
